Numbered stars: 1 amine (or outer) side, 2 acyl side, 3 side chain; on linkers, the order of the positions; unused ones are H or OH. Bridge positions count the residues as written; N and C are the ends. Square brackets hold non-standard residues; d marks the D form. Peptide text beside a SMILES is read from it. * marks the point of attachment. Tartaroyl(2R,3R-(OAc)2) = CC(=O)O[C@@H](C(=O)[*:1])[C@@H](OC(C)=O)C(=O)[*:2]; Phe(3-Ph) = N[C@@H](Cc1cccc(-c2ccccc2)c1)C(=O)O; Phe(4-CF3) = N[C@@H](Cc1ccc(C(F)(F)F)cc1)C(=O)O; Bip = N[C@@H](Cc1ccc(-c2ccccc2)cc1)C(=O)O; dPhe(4-NH2) = Nc1ccc(C[C@@H](N)C(=O)O)cc1; Phe(4-Cl) = N[C@@H](Cc1ccc(Cl)cc1)C(=O)O; dPhe(4-Br) = N[C@H](Cc1ccc(Br)cc1)C(=O)O; Phe(4-NH2) = Nc1ccc(C[C@H](N)C(=O)O)cc1; Ala(2-furyl) = N[C@@H](Cc1ccco1)C(=O)O; 1Nal = N[C@@H](Cc1cccc2ccccc12)C(=O)O; d(hPhe) = N[C@H](CCc1ccccc1)C(=O)O; hPhe = N[C@@H](CCc1ccccc1)C(=O)O; 2Thi = N[C@@H](Cc1cccs1)C(=O)O; d2Thi = N[C@H](Cc1cccs1)C(=O)O; Suc = O=C(CCC(=O)[*:2])[*:1]; NHCH2SO3H = O=S(=O)(O)CN*; Bn = c1ccc(C*)cc1; βAla = NCCC(=O)O
Target: T1, TNFα / TNFα receptor (TNFα R1/Fc) (Homo sapiens, UniProt P01375)
T1 construct: purchased R&D Systems
T1 sequence (P01375 77-233 limits assumed, species assumed): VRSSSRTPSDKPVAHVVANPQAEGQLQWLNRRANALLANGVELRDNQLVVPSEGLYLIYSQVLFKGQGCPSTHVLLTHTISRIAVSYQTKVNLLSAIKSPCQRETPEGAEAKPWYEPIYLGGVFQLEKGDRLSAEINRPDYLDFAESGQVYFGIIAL
Experiment: Inhibition of binding of TNFα to the TNFα receptor (plate ELISA competition)
Conditions: Activity (IC50, inhibition of TNFα binding to TNFα R1/Fc), Table 2
Experimental: The compounds listed in Table 2 below were assayed for ability to inhibit binding of TNFα to the TNFα receptor (TNFα R1/Fc). The assays were performed as described in the following procedure: TNFα (R&D Systems) was coated on high binding plate wells (Corning 96-well) at a single uniform concentration of 15 nM, 100 μL/well in PBS. The coating proceeded for 30 minutes at 37° C. then 10 minutes at 4° C. The coated plate was washed with PBST, then 250 μL/well of blocking solution (PBST 0.1% BSA, bovine serum albumin) was added and incubation proceeded for 30-45 minutes at room temperature with agitation. The solution phase competition proceeded separately with the dilutions of test compound in PBST (phosphate buffered saline with Tween 20), 2% DMSO in a polypropylene plate (Corning 96-well storage plate) with a single concentration, 8.33 nM of the high affinity receptor for TNFα (R&D Systems). This solution phase incubation proceeded for 30 minutes at room temperature with agitation and was then added to the washed TNFα coated assay plate, 100 μL/well, and was incubated for a further 30 minutes at room temperature with agitation. The assay plate was washed and 100 μL goat anti-human IgG (Fc) HRP labeled antibody in PBST, 13 pM, (KPL Cat#04-10-2) was added to each well. This incubation proceeded for 25-30 minutes at room temperature with agitation. Following this incubation step, the plate was washed and a 100 μL TMB solution (SUREBLUE™ TMB Peroxidase substrate, KPL) was added per well and allowed to stand approximately 3-5 minutes for development. The TMB reaction was stopped with the addition of 0.5N HCl and then the plate was read for absorbance at 450 nm.

SMILES	IC50 [µM]
O=C1COc2ccc(cc2)C[C@@H](C(=O)N[C@H](CO)C(=O)O)NC(=O)[C@H](CCc2ccccc2)NC(=O)[C@@H](Cc2ccc(-c3ccccc3)cc2)NC(=O)[C@H](Cc2ccncc2)N1 [Compound 555]	< 10
O=C1COc2ccc(cc2)C[C@@H](C(=O)O)NC(=O)[C@H](CCc2ccccc2)NC(=O)[C@@H](Cc2ccc(-c3ccncc3)cc2)NC(=O)[C@H](Cc2cccs2)N1 [Compound 658]	< 10

Same assay, conditions: Table 2; read-out: Activity (IC50, inhibition of TNFα binding to TNFα R1/Fc)

SMILES	IC50 [µM]
CC(=O)O[C@H]1C(=O)Nc2ccc(cc2)C[C@@H](C(=O)N[C@@H](Cc2ccccc2)C(=O)O)NC(=O)[C@H](CCc2ccccc2)NC(=O)[C@@H](Cc2ccc(Br)cc2)NC(=O)[C@H](Cc2cccs2)NC(=O)[C@@H]1OC(C)=O [Compound 416] ([2Thi][dPhe(4-Br)][hPhe][Phe(4-NH2)]F-OH; linker N-4 via Tartaroyl(2R,3R-(OAc)2))	> 100
O=C1CCC(=O)N[C@@H](Cc2cccs2)C(=O)N[C@@H](Cc2ccc(-c3ccccc3)cc2)C(=O)N[C@H](Cc2ccccc2)C(=O)N[C@@H](C(=O)O)Cc2ccc(cc2)N1 [Compound 499] ([2Thi][Bip][dF][dPhe(4-NH2)]-OH; linker N-4 via Suc)	> 100
O=C1CCC(=O)N[C@H](CCc2ccccc2)C(=O)N[C@@H](Cc2ccc(C(F)(F)F)cc2)C(=O)N[C@@H](Cc2ccco2)C(=O)N[C@H](C(=O)O)Cc2ccc(cc2)N1 [Compound 224] ([d(hPhe)][Phe(4-CF3)][Ala(2-furyl)][Phe(4-NH2)]-OH; linker N-4 via Suc)	> 100
O=C1CCC(=O)N[C@H](Cc2cccs2)C(=O)N[C@@H](Cc2ccc(-c3ccccc3)cc2)C(=O)N[C@@H](CO)C(=O)N[C@H](C(=O)O)Cc2ccc(cc2)N1 [Compound 60] ([d2Thi][Bip]S[Phe(4-NH2)]-OH; linker N-4 via Suc)	> 100
COc1cccc(C[C@H]2NC(=O)[C@H](Cc3cccs3)NC(=O)COc3ccc(cc3)C[C@@H](C(=O)O)NC(=O)[C@H](Cc3ccccc3)NC2=O)c1 [Compound 407]	> 100
O=C1N[C@H](Cc2ccccc2)C(=O)N[C@@H](C(=O)O)Cc2ccc(cc2)NC(=O)[C@H](O)[C@@H](O)C(=O)N[C@@H](Cc2cccs2)C(=O)N[C@H]1Cc1ccc(-c2ccccc2)cc1 [Compound 277]	> 100
O=C1CCC(=O)N[C@H](Cc2cccs2)C(=O)N[C@@H](Cc2ccc(-c3ccccc3)cc2)C(=O)N[C@H](Cc2ccccc2)C(=O)N[C@H](C(=O)N2CCC[C@@H]2C(=O)O)Cc2ccc(cc2)N1 [Compound 32] ([d2Thi][Bip][dF][Phe(4-NH2)][dP]-OH; linker N-4 via Suc)	> 100
C[C@@H](NC(=O)[C@@H]1Cc2ccc(cc2)NC(=O)CCC(=O)N[C@H](Cc2ccccc2)C(=O)N[C@@H](Cc2ccc(-c3ccccc3)cc2)C(=O)N[C@H](CCc2ccccc2)C(=O)N1)C(=O)O [Compound 457] ([dF][Bip][d(hPhe)][Phe(4-NH2)][dA]-OH; linker N-4 via Suc)	> 100
O=C1CCC(=O)N[C@@H](Cc2cccs2)C(=O)N[C@@H](Cc2ccc(-c3ccccc3)cc2)C(=O)N[C@@H](Cc2ccccc2)C(=O)N[C@@H](C(=O)O)Cc2ccc(cc2)N1 [Compound 502] ([2Thi][Bip]F[dPhe(4-NH2)]-OH; linker N-4 via Suc)	> 100
O=C1CCC(=O)N[C@H](Cc2cccs2)C(=O)N[C@@H](Cc2ccc(OCc3ccccc3)cc2)C(=O)N[C@H](Cc2ccccc2)C(=O)N[C@H](C(=O)O)Cc2ccc(cc2)N1 [Compound 92] ([d2Thi]Y(Bn)[dF][Phe(4-NH2)]-OH; linker N-4 via Suc)	30 to 100
O=C(O)C[C@H]1NC(=O)[C@H](Cc2ccc(-c3ccccc3)cc2)NC(=O)[C@@H](Cc2cccs2)NC(=O)CCC(=O)Nc2ccc(cc2)C[C@@H](C(=O)O)NC1=O [Compound 65] ([d2Thi][Bip][dD][Phe(4-NH2)]-OH; linker N-4 via Suc)	> 100
O=C1CCC(=O)N[C@H](Cc2cccs2)C(=O)N[C@@H](Cc2ccc(Cl)cc2)C(=O)N[C@H](Cc2ccccc2)C(=O)N[C@H](C(=O)O)Cc2ccc(cc2)N1 [Compound 105] ([d2Thi][Phe(4-Cl)][dF][Phe(4-NH2)]-OH; linker N-4 via Suc)	30 to 100
O=C(O)C[C@@H]1NC(=O)[C@H](Cc2ccc(-c3ccccc3)cc2)NC(=O)[C@@H](Cc2cccs2)NC(=O)CCC(=O)Nc2ccc(cc2)C[C@@H](C(=O)O)NC1=O [Compound 64] ([d2Thi][Bip]D[Phe(4-NH2)]-OH; linker N-4 via Suc)	> 100
O=C1CN(Cc2ccccc2)C(=O)[C@@H](Cc2ccc(-c3ccccc3)cc2)NC(=O)[C@H](Cc2cccs2)NC(=O)COc2ccc(cc2)C[C@@H](C(=O)O)N1 [Compound 253]	> 100
O=C(O)CC[C@@H]1NC(=O)[C@H](Cc2ccc(-c3ccccc3)cc2)NC(=O)[C@H](Cc2cccs2)NC(=O)COc2ccc(cc2)C[C@@H](C(=O)O)NC1=O [Compound 258]	> 100

Results, then the molecule that gave them:

IC50 [µM]	SMILES
< 10	O=C1CCC(=O)N[C@H](CCc2ccccc2)C(=O)N[C@@H](Cc2ccc(-c3ccccc3)cc2)C(=O)N[C@H](Cc2ccccc2)C(=O)N[C@H](C(=O)N[C@@H](Cc2ccc(O)cc2)C(=O)O)Cc2ccc(cc2)N1 [Compound 471] ([d(hPhe)][Bip][dF][Phe(4-NH2)]Y-OH; linker N-4 via Suc)
< 10	O=C1COc2ccc(cc2)C[C@@H](C(=O)O)NC(=O)[C@H](Cc2ccccc2)NC(=O)[C@@H](Cc2ccc(-c3ccccc3)cc2)NC(=O)[C@H](Cc2cccs2)N1 [Compound 214]
30 to 100	O=C(O)CCCNC(=O)[C@@H]1Cc2ccc(cc2)OCC(=O)N[C@@H](Cc2ccc(-c3ccccc3)cc2)C(=O)N[C@H](Cc2ccc(-c3ccccc3)cc2)C(=O)N[C@@H](CCc2ccccc2)C(=O)N1 [Compound 568]
< 10	O=C1COc2ccc(cc2)C[C@@H](C(=O)O)NC(=O)[C@H](Cc2ccccc2)NC(=O)[C@H](Cc2cccc(C(F)(F)F)c2)NC(=O)[C@H](Cc2cccs2)N1 [Compound 400]
< 10	O=C(O)CCCNC(=O)[C@@H]1Cc2ccc(cc2)OCC(=O)N[C@@H](Cc2c[nH]c3ccccc23)C(=O)N[C@H](Cc2ccc(-c3ccccc3)cc2)C(=O)N[C@@H](CCc2ccccc2)C(=O)N1 [Compound 720]
< 10	O=C(O)CCNC(=O)[C@@H]1Cc2ccc(cc2)NC(=O)[C@H](O)[C@@H](O)C(=O)N[C@H](Cc2cccs2)C(=O)N[C@@H](Cc2ccc(-c3ccccc3)cc2)C(=O)N[C@H](CCc2ccccc2)C(=O)N1 [Compound 401]
< 10	O=C(O)CNC(=O)[C@@H]1Cc2ccc(cc2)OCC(=O)N[C@@H](Cc2ccncc2)C(=O)N[C@H](Cc2ccc(-c3ccccc3)cc2)C(=O)N[C@@H](CCc2ccccc2)C(=O)N1 [Compound 558]
10 to 30	O=C1CCC(=O)N[C@H](CCc2ccccc2)C(=O)N[C@@H](Cc2cccc3ccccc23)C(=O)N[C@H](Cc2ccccc2)C(=O)N[C@H](C(=O)O)Cc2ccc(cc2)N1 [Compound 108] ([d(hPhe)][1Nal][dF][Phe(4-NH2)]-OH; linker N-4 via Suc)
10 to 30	O=C1CCC(=O)N[C@H](CCc2ccccc2)C(=O)N[C@@H](Cc2cccc(-c3ccccc3)c2)C(=O)N[C@H](Cc2ccccc2)C(=O)N[C@H](C(=O)O)Cc2ccc(cc2)N1 [Compound 113] ([d(hPhe)][Phe(3-Ph)][dF][Phe(4-NH2)]-OH; linker N-4 via Suc)
< 10	O=C1COc2ccc(cc2)C[C@@H](C(=O)O)NC(=O)[C@H](Cc2ccccc2)NC(=O)[C@@H](Cc2ccc(-c3ccccc3)cc2)NC(=O)[C@H](Cc2ccncc2)N1 [Compound 646]
< 10	O=C1COc2ccc(cc2)C[C@@H](C(=O)N[C@H](Cc2ccccc2)C(=O)O)NC(=O)[C@H](Cc2ccccc2F)NC(=O)[C@@H](Cc2ccc(-c3ccccc3)cc2)NC(=O)[C@H](Cc2cccs2)N1 [Compound 587]
< 10	O=C1CCC(=O)N[C@H](CCc2ccccc2)C(=O)N[C@@H](Cc2ccc(-c3ccccc3)cc2)C(=O)N[C@H](Cc2ccccc2)C(=O)N[C@H](C(=O)N[C@@H](Cc2ccccc2)C(=O)NCS(=O)(=O)O)Cc2ccc(cc2)N1 [Compound 542] ([d(hPhe)][Bip][dF][Phe(4-NH2)]F-NHCH2SO3H; linker N-4 via Suc)
10 to 30	O=C(O)CCNC(=O)[C@@H]1Cc2ccc(cc2)NC(=O)CCC(=O)N[C@H](Cc2cccs2)C(=O)N[C@@H](Cc2ccc(-c3ccccc3)cc2)C(=O)N[C@H](CCc2ccccc2)C(=O)N1 [Compound 448] ([d2Thi][Bip][d(hPhe)][Phe(4-NH2)][βAla]-OH; linker N-4 via Suc)
< 10	NCCCC[C@H](NC(=O)[C@@H]1Cc2ccc(cc2)NC(=O)CCC(=O)N[C@H](Cc2cccs2)C(=O)N[C@@H](Cc2ccc(-c3ccccc3)cc2)C(=O)N[C@H](Cc2ccccc2)C(=O)N1)C(=O)O [Compound 28] ([d2Thi][Bip][dF][Phe(4-NH2)]K-OH; linker N-4 via Suc)
< 10	O=C1COc2ccc(cc2)C[C@@H](C(=O)N(CCS(=O)(=O)O)C(CO)(CO)CO)NC(=O)[C@H](CCc2ccccc2)NC(=O)[C@@H](Cc2ccc(-c3ccccc3)cc2)NC(=O)[C@H](Cc2ccncc2)N1 [Compound 606]

— patent publication US8338565B2, “Macrocyclic compounds for inhibition of tumor necrosis factor alpha” (Ensemble Therapeutics Corporation, priority 2008, dated 2012)
